According to patent publication US6602500B1, “Paenibacillus polymyxa strain ATCC 202127 for biocontrol of bacteria and fungi” (The Governors of the University of Alberta, priority 1998, dated 2003):

Tested on: L. maculans
Test: Inhibition of growth of L. maculans by other strains and polymyxins (qualitative)
Assay type: cell-based, Leptosphaeria maculans

## polymyxins
  inhibitory effect against L. maculans: ineffective
